From patent US10351547B2, “Somatostatin modulators and uses thereof” (priority 2016, dated 2019)
Read-outs that look alike come from different tables or passages of the source.

Molecular target: human SSTR2 (Homo sapiens (Human), UniProt P30874)
Experiment: Human SSTR2 intracellular cAMP functional assay for agonists (HTRF)
Type: cell-based
Outline: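 Cells bearing human SSTR2 exposed to compound for 20 minutes at 37 °C; after lysis, cAMP measured by time-resolved fluorescence (HTRF) and converted via a standard curve. EC50 calculated from cAMP versus compound concentration.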

[1] = CHO-K1 cells stably expressing human SSTR2, NKH477-stimulated cAMP, read-out: EC50 (inhibition of cAMP activities via human SST2R)

Chain of human SSTR2 (P30874 whole entry): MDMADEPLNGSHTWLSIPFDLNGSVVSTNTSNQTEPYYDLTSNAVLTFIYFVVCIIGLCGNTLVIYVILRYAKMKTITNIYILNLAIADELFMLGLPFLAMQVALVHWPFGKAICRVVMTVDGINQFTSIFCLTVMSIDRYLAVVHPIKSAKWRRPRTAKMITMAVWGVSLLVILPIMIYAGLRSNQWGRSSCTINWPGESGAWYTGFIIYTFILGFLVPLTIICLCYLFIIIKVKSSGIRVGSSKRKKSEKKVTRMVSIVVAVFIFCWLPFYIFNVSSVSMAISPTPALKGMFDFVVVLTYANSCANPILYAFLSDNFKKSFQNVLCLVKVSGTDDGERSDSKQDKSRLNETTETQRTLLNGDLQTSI

Structure (SMILES)	EC50 [1] [µM]	EC50 [µM]
COCCNc1ncc(F)cc1-c1ccc2ncc(-c3cc(C)cc(F)c3)c(N3CCC(N)CC3)c2c1 [2-234, 3-[4-(4-aminopiperidin-1-yl)-3-(3-fluoro-5-methylphenyl)quinolin-6-yl]-5-fluoro-N-(2-methoxyethyl)pyridin-2-amine]	< 0.01	–
N#Cc1cccc(-c2ccc3ncc(-c4cc(F)cc(F)c4)c(N4CC[C@@H](N)[C@H](C#N)C4)c3c2)c1O (relative stereo) [2-92, trans-4-amino-1-[6-(3-cyano-2-hydroxyphenyl)-3-(3,5-difluorophenyl)quinolin-4-yl]piperidine-3-carbonitrile]	0.1 to 1	–
Cc1cc(F)cc(-c2cnc3ccc(-c4cccc(C#N)c4O)cc3c2N2CCC(N)CC2)c1 [2-1, 3-[4-(4-aminopiperidin-1-yl)-3-(3-fluoro-5-methylphenyl)quinolin-6-yl]-2-hydroxybenzonitrile]	< 0.01	–
CONC(=O)Nc1nc(C)ccc1-c1ccc2ncc(-c3cc(C)cc(F)c3)c(N3CCC(N)CC3)c2c1 [2-239, 1-{3-[4-(4-aminopiperidin-1-yl)-3-(3-fluoro-5-methylphenyl)quinolin-6-yl]-6-methylpyridin-2-yl}-3-methoxyurea]	–	0.01 to 0.1
COCOc1c(C#N)cccc1-c1ccc2ncc(-c3cc(F)cc(F)c3)c(N3CCC(N)CC3)c2c1 [2-78, 3-[4-(4-aminopiperidin-1-yl)-3-(3,5-difluorophenyl)quinolin-6-yl]-2-(methoxymethoxy)benzonitrile]	< 0.01	–
N#Cc1cccc(-c2ccc3ncc(-c4cc(F)cc(F)c4)c(N4CCC(N)CC4)c3c2)c1N [2-77, 2-amino-3-[4-(4-aminopiperidin-1-yl)-3-(3,5-difluorophenyl)quinolin-6-yl]benzonitrile]	< 0.01	–
N#Cc1cccc(-c2ccc3ncc(-c4cc(F)cc(F)c4)c(N4CCC(N)CC4)c3c2)c1O [2-2, 3-[4-(4-amino-piperidin-1-yl)-3-(3,5-difluoro-phenyl)-quinolin-6-yl]-2-hydroxy-benzonitrile]	< 0.01	–
Cc1cc(F)cc(-c2cnc3ccc(-c4ccc5[nH]c(=O)[nH]c5c4)cc3c2N2CCC(N)CC2)c1 [2-9, 5-[4-(4-aminopiperidin-1-yl)-3-(3-fluoro-5-methylphenyl)quinolin-6-yl]-2,3-dihydro-1H-1,3-benzodiazol-2-one]	< 0.01	–
N#Cc1cccc(-c2ccc3ncc(-c4cc(F)cc(F)c4)c(N4CC[C@H](N)[C@H](C#N)C4)c3c2)c1O (relative stereo) [2-94, cis-4-amino-1-[6-(3-cyano-2-hydroxyphenyl)-3-(3,5-difluorophenyl)quinolin-4-yl]piperidine-3-carbonitrile]	0.01 to 0.1	–
Cc1cc(C)cc(-c2nnc3cc(Cl)c(-c4cccc(C#N)c4O)cc3c2N2CCC(N)CC2)c1 [1-2, 3-[4-(4-aminopiperidin-1-yl)-7-chloro-3-(3,5-dimethylphenyl)cinnolin-6-yl]-2-hydroxybenzonitrile]	< 0.01	–
CONC(=O)Nc1ccc(-c2ccc3ncc(-c4cc(C)cc(F)c4)c(N4CCC(N)CC4)c3c2)cc1 [2-240, 1-{4-[4-(4-aminopiperidin-1-yl)-3-(3-fluoro-5-methylphenyl)quinolin-6-yl]phenyl}-3-methoxyurea]	–	0.01 to 0.1
CONC(=O)Nc1ncccc1-c1ccc2ncc(-c3cc(C)cc(F)c3)c(N3CCC(N)CC3)c2c1 [2-226, 1-{3-[4-(4-aminopiperidin-1-yl)-3-(3-fluoro-5-methylphenyl)quinolin-6-yl]pyridin-2-yl}-3-methoxyurea]	< 0.01	–
Nc1cc(F)cnc1-c1ccc2ncc(-c3cc(F)cc(F)c3)c(N3CC[C@H]4NCCO[C@@H]4C3)c2c1 (relative stereo) [2-265, 2-{4-[trans-octahydro-1H-pyrido[3,4-b]morpholin-6-yl]-3-(3,5-difluorophenyl)quinolin-6-yl}-5-fluoropyridin-3-amine]	< 0.01	–
